# Where a name gives a salt, the structure may show the parent alone. Read-outs that look alike come from different tables or passages of the source.
# What was measured:
# [1] = Stability evaluation in aqueous buffer; type: physicochemical; conditions: aqueous buffer, 37° C., about 50 μg/mL, about 15% v/v acetonitrile
# Description: The stability study of an individual prodrug was conducted with about 50 μg/mL solutions in aqueous buffers of pH 1 (0.1 M HCl), 4 (acetate buffer) and 6.5 (phosphate buffer) at 37° C. for 24 hours. About 15% v/v acetonitrile was used in these pH buffers as a co-solvent to obtain clear solutions of prodrugs. The sample analysis was carried out using a generic reversed phase liquid chromatographic (LC) method with UV detection. The area percent (AP) loss of the prodrug peak was quantified as a function of time. The appearance of parent peak was identified from the chromatographic retention time. The half-life (t1/2, h) of the prodrug was calculated by using a pseudo-first order equation from a AP loss vs time plot.
# [2] = Solubility evaluation in aqueous buffer; type: physicochemical; conditions: for solubility: thermodynamic from solid, about 24 hours equilibration
# Description: The solid powder of an individual prodrug was equilibrated in aqueous buffers of pH 1, 4 and 6.5 at 25° C. for about 24 hours. After equilibration, the excess solid was separated by filtration using 0.45 μm membrane filter and the filtrate was collected in suitable glass vial. The filtrate was diluted appropriately using respective buffers/diluent and analyzed by a reversed phase LC method with UV detection.
# [3] = pH 1, pH 1 (0.1 M HCl), read-out: Stability (t1/2, h) at 37° C. pH 1 (converted)
# [4] = pH 4, pH 4 (acetate buffer), read-out: Stability (t1/2, h) at 37° C. pH 4 (converted)
# [5] = pH 6.5, pH 6.5 (phosphate buffer), read-out: Stability (t1/2, h) at 37° C. pH 6.5 (converted)
# [6] = aqueous buffer, 25 °C, pH 1, simulated gastric fluid, aqueous buffer pH 1, 25° C., read-out: Solubility (mg/mL) at 25° C. pH 1
# [7] = aqueous buffer, 25 °C, pH 4, aqueous buffer, aqueous buffer pH 4, 25° C., read-out: Solubility (mg/mL) at 25° C. pH 4
# [8] = aqueous buffer, 25 °C, pH 6.5, aqueous buffer, aqueous buffer pH 6.5, 25° C., read-out: Solubility (mg/mL) at 25° C. pH 6.5
"half-life [1, 3] [h]","half-life [1, 4] [h]","half-life [1, 5] [h]","solubility [2, 6] [mg/mL]","solubility [2, 7] [mg/mL]","solubility [2, 8] [mg/mL]",SMILES,pH dependence of aqueous solubility ([2]; pH of 1 versus pH of 4 or pH of 6),"half-life ([1]; pH 1 (0.1 M HCl), read-out: Stability (t1/2, h) at 37° C. pH 1 (converted)) [h]","half-life ([1]; pH 4 (acetate buffer), read-out: Stability (t1/2, h) at 37° C. pH 4 (converted)) [h]","half-life ([1]; pH 6.5 (phosphate buffer), read-out: Stability (t1/2, h) at 37° C. pH 6.5 (converted)) [h]","solubility ([2]; simulated gastric fluid, aqueous buffer pH 1, 25° C., read-out: Solubility (mg/mL) at 25° C. pH 1) [mg/mL]","solubility ([2]; aqueous buffer pH 4, 25° C., read-out: Solubility (mg/mL) at 25° C. pH 4) [mg/mL]","solubility ([2]; aqueous buffer pH 6.5, 25° C., read-out: Solubility (mg/mL) at 25° C. pH 6.5) [mg/mL]"
459,99,2.5,–,–,–,"CNCC(=O)OCc1cccnc1N(C)C(=O)OC[n+]1cnn2cc(-c3[nH]c4ccc(C5CCN(CC(N)=O)CC5)cc4c3C(C)C)c(C)c(C)c21 [Example 13, 6-(5-(1-(2-Amino-2-oxoethyl)piperidin-4-yl)-3-isopropyl-1H-indol-2-yl)-7,8-dimethyl-1-(((methyl(3-(((methylglycyl)oxy)methyl)pyridin-2-yl)carbamoyl)oxy)methyl)-[1,2,4]triazolo[1,5-a]pyridin-1-ium tritrifluoroacetate]",–,–,–,–,–,–,–
> 500,> 500,218,> 1.74,> 1.28,> 1.34,"Cc1c(-c2c(C(C)C)c3cc(C4CCN(CC(N)=O)CC4)ccc3n2C(=O)OC[C@@H]2CCCCN2)cn2ncnc2c1C [Example 1, (S)-Piperidin-2-ylmethyl 5-(1-(2-amino-2-oxoethyl)piperidin-4-yl)-2-(7,8-dimethyl-[1,2,4]triazolo[1,5-a]pyridin-6-yl)-3-isopropyl-1H-indole-1-carboxylate]",–,–,–,–,–,–,–
231,257,231,> 1.64,0.91,0.66,"Cc1c(-c2c(C(C)C)c3cc(C4CCN(CC(N)=O)CC4)ccc3n2C(=O)OC[C@@H]2CCCN2C(=O)OCOP(=O)(O)O)cn2ncnc2c1C [Example 4, (S)-(1-(((Phosphonooxy)methoxy)carbonyl)pyrrolidin-2-yl)methyl 5-(1-(2-amino-2-oxoethyl)piperidin-4-yl)-2-(7,8-dimethyl-[1,2,4]triazolo[1,5-a]pyridin-6-yl)-3-isopropyl-1H-indole-1-carboxylate]",–,–,–,–,–,–,–
> 500,> 500,> 500,> 1.39,> 2.93,0.1,"CCOC(=O)n1c(-c2cn3ncnc3c(C)c2C)c(C(C)C)c2cc(C3CCN(CC(N)=O)CC3)ccc21 [Example 24, Ethyl 5-(1-(2-amino-2-oxoethyl)piperidin-4-yl)-2-(7,8-dimethyl-[1,2,4]triazolo[1,5-a]pyridin-6-yl)-3-isopropyl-1H-indole-1-carboxylate]",–,–,–,–,–,–,–
> 500,99,1.6,–,–,–,"CNCC(=O)OCc1cccnc1N(C)C(=O)OC[N+]1(CC(N)=O)CCC(c2ccc3[nH]c(-c4cn5ncnc5c(C)c4C)c(C(C)C)c3c2)CC1 (stereo not shown) [Example 12, 1-(2-Amino-2-oxoethyl)-4-(2-(7,8-dimethyl-[1,2,4]triazolo[1,5-a]pyridin-6-yl)-3-isopropyl-1H-indol-5-yl)-1-(((methyl(3-(((methylglycyl)oxy)methyl)pyridin-2-yl)carbamoyl)oxy)methyl)piperidin-1-ium ditrifluoroacetate]",–,–,–,–,–,–,–
–,–,–,1.56,0.05,< 0.01,"Cc1c(-c2[nH]c3ccc(C4CCN(CC(N)=O)CC4)cc3c2C(C)C)cn2ncnc2c1C [Compound A, 2-(4-(2-(7,8-dimethyl-[1,2,4]triazolo[1,5-a]pyridin-6-yl)-3-isopropyl-1H-indol-5-yl)piperidin-1-yl)acetamide, reference compound]",higher solubility at pH of 1 than at pH of 4 or pH of 6,–,–,–,–,–,–
> 500,> 500,> 500,> 1.16,> 1.87,> 2.08,"Cc1c(-c2[nH]c3ccc(C4CC[N+](COC(=O)N(C)CCOP(=O)(O)O)(CC(N)=O)CC4)cc3c2C(C)C)cn2ncnc2c1C (single isomer, unassigned) [Example 20, 1-(2-Amino-2-oxoethyl)-4-(2-(7,8-dimethyl-[1,2,4]triazolo[1,5-a]pyridin-6-yl)-3-isopropyl-1H-indol-5-yl)-1-(((methyl(2-(phosphonooxy)ethyl)carbamoyl)oxy)methyl) piperidin-1-ium trifluoroacetate]",–,–,–,–,–,–,–
347,139,39,> 0.94,> 0.9,0.8,"Cc1c(-c2c(C(C)C)c3cc(C4CCN(CC(N)=O)CC4)ccc3n2C(=O)OCOC(=O)C2(N)CC2)cn2ncnc2c1C [Example 15, ((1-Aminocyclopropane-1-carbonyl)oxy)methyl 5-(1-(2-amino-2-oxoethyl)piperidin-4-yl)-2-(7,8-dimethyl-[1,2,4]triazolo[1,5-a]pyridin-6-yl)-3-isopropyl-1H-indole-1-carboxylate trifluoroacetate]",–,–,–,–,–,–,–
248,283,267,> 1.17,0.24,0.43,"Cc1c(-c2c(C(C)C)c3cc(C4CCN(CC(N)=O)CC4)ccc3n2C(=O)OC[C@@H]2CCCCN2C(=O)OCOP(=O)(O)O)cn2ncnc2c1C [Example 2, (S)-(1-(((Phosphonooxy)methoxy)carbonyl)piperidin-2-yl)methyl 5-(1-(2-amino-2-oxoethyl)piperidin-4-yl)-2-(7,8-dimethyl-[1,2,4]triazolo[1,5-a]pyridin-6-yl)-3-isopropyl-1H-indole-1-carboxylate]",–,–,–,–,–,–,–
179,> 500,> 500,> 1.41,1.28,0.01,"Cc1c(-c2c(C(C)C)c3cc(C4CCN(CC(N)=O)CC4)ccc3n2CO)cn2ncnc2c1C [Example 25, 2-(4-(2-(7,8-Dimethyl-[1,2,4]triazolo[1,5-a]pyridin-6-yl)-1-(hydroxymethyl)-3-isopropyl-1H-indol-5-yl)piperidin-1-yl)acetamide]",–,–,–,–,–,–,–
–,–,–,–,–,–,"COc1cc(C(=O)OCOC(=O)n2c(-c3cn4ncnc4c(C)c3C)c(C(C)C)c3cc(C4CCN(CC(N)=O)CC4)ccc32)ccc1OP(=O)(O)O [Example 22, ((3-Methoxy-4-(phosphonooxy)benzoyl)oxy)methyl 5-(1-(2-amino-2-oxoethyl)piperidin-4-yl)-2-(7,8-dimethyl-[1,2,4]triazolo[1,5-a]pyridin-6-yl)-3-isopropyl-1H-indole-1-carboxylate]",–,400,> 500,> 500,> 1.02,0.02,0.02
> 500,233,4.5,> 2.84,> 2.15,1.19,"CNCC(=O)n1c(-c2cn3ncnc3c(C)c2C)c(C(C)C)c2cc(C3CCN(CC(N)=O)CC3)ccc21 [Example 5, 2-(4-(2-(7,8-Dimethyl-[1,2,4]triazolo[1,5-a]pyridin-6-yl)-3-isopropyl-1-(methylglycyl)-1H-indol-5-yl)piperidin-1-yl)acetamide ditrifluoroacetate]",–,–,–,–,–,–,–
80,7.5,0.1,–,–,–,"Cc1c(-c2c(C(C)C)c3cc(C4CCN(CC(N)=O)CC4)ccc3n2C(=O)OCOP(=O)(O)O)cn2ncnc2c1C [Example 16, (Phosphonooxy)methyl 5-(1-(2-amino-2-oxoethyl)piperidin-4-yl)-2-(7,8-dimethyl-[1,2,4]triazolo[1,5-a]pyridin-6-yl)-3-isopropyl-1H-indole-1-carboxylate]",–,–,–,–,–,–,–
6.4,2.9,6.3,–,–,–,"Cc1c(-c2c(C(C)C)c3cc(C4CCN(CC(N)=O)CC4)ccc3n2P(=O)(O)O)cn2ncnc2c1C [Example 18, (5-(1-(2-Amino-2-oxoethyl)piperidin-4-yl)-2-(7,8-dimethyl-[1,2,4]triazolo[1,5-a]pyridin-6-yl)-3-isopropyl-1H-indol-1-yl)phosphonate]",–,–,–,–,–,–,–
